According to article PMC7277860, “Viridistratins A−C, Antimicrobial and Cytotoxic Benzo[j]fluoranthenes from Stromata of Annulohypoxylon viridistratum (Hypoxylaceae, Ascomycota)” (Biomolecules, 2020):
Values after ≈ are worked out from the molar mass of the structure shown.

System: Chromobacterium violaceum
Experiment: MIC serial dilution assay
Format: cell-based
Details: Chromobacterium violaceum DSM30191; overnight, 30 °C; reference oxytetracycline 0.1 mg/mL; read-out: Minimum Inhibitory Concentration (MIC)
Procedure: Compounds 1, 2, 4 and 5 were dissolved in MeOH (1 mg/mL) for the antimicrobial activity assay, while compound 3 was dissolved in MeOH: DMSO 9+1 (1 mg/mL). The solvents were also used as negative controls.
Minimum inhibitory concentrations (MIC) were determined in a serial dilution assay, as described previously; a detailed protocol can be found in the Supporting Information. The compounds (1 mg/mL) were diluted to a range of 66.7 to 0.52 µg/mL and incubated with the test organisms overnight. Inhibition of growth was visually evaluated the next day: the MIC is defined as the lowest concentration of the test compound where no growth of the test organism was observed. Various test organisms of fungal and bacterial origin were tested to cover a broad range of microorganisms. This selection is also being used as a standard test panel in our attempts to discover new anti-infectives, as it represents a broad spectrum of pathogens of clinical interest, as well as sensitive indicator strains (bacteria: Bacillus subtilis, Staphylococcus aureus, Micrococcus luteus, Chromobacterium violaceum, Escherichia coli and Pseudomonas aeruginosa; mycobacteria: Mycolicibacterium smegmatis and fungi: Candida albicans, Schizosaccharomyces pombe, Mucor hiemalis, Pichia anomala and Rhodotorula glutinis).
Protocol: Antimicrobial Activi ty Assay
The assay was conducted as a minimum inhi bitory concentration (MIC) assay in 96-well ro und-bottom mi crotiter pl ate s usi ng the p ar ameter s su mm ari zed i n T a bl e S 1 and as already described i n [S1].
Stocks of the test organi sms were generated by growing the organisms o ver ni ght i n 50 mL shaki ng fl asks fi ll ed wi th 25 mL of the growth medi um at 140 rpm (for media and temperatures see Table S1). If the organisms were well grown the ne xt day, which was checked by occurrence of an optical density (OD)>30 of the suspension (OD600 nm for bacteria, OD548 nm for fungi and M. smegma tis) , aliquots of these were stored i n 1.5 mL reaction tube s in a freezer at −80 °C for up to 12 mo nths . Upon use, aliquots were unth awed and the OD of the suspension measured and adjusted by diluting with the respective growth medi um. OD600 nm w as adj usted to 0.01 and OD548 nm to 0.1.
Subse que ntly, 150 µL o f the adjusted suspensions were added to all wells of a 96-wel l microtiter pl ate (one test organi sm per plate). In row A, additional 130 µL of suspensions plus 20 µL of the test compounds (1 mg/mL) and the controls (one compound/column) were added. MeOH as well as MeOH:DMSO 9+1 were used as negative controls, while different positive controls (refer ences) were used for the test organisms (see Tabl e S1). Then, starti ng from row A, 150 µ L of the suspension were transferred to the next row, the contents thoroughly mixed, and 150 µ L transferred to the following row.
The remaining 150 µ L after row H were discarded. […]
compounds, ranging from 66.7 µg/mL i n row A to 0.52 µg/mL i n row H.
The microtiter plates were then incubated overnight o n a microplate shaker at 800 rpm at 30 or 37 °C (see Table S1) and were visually evaluated the next day. The MIC is defined as the lowest concentration were no growth of the test organism was o bserved. A lower MIC thus corresponds to a higher antimicrobial activity of the test compound.
Table S1: MIC assay ex per i men t parameters test organism strain No. growth incubation positive control (reference) […]
Chromobacterium DSM30191 MHB 1 30 oxytetr acyclin 0.1 mg/mL […]
Rhodotorula glutinis DSM10134 MYC 3 30 nyst ati n 1.0 mg/mL
1 MHB: Müller-Hinton Broth (SN X927.1, Ca r l Roth GmbH, Karlsruhe, Germany) 2 7H9+ADC: Middlebrook 7H9 Broth Base + Middlebrook ADC Growth Supplement (SN M0678+M0553, Merck, Darmstadt, Germany)
3 MYC: 1 % w/v, bacto peptone, 1% w/v yeast extract, 2 % w /v glycerol, pH 6.3 [S1] Helaly, S.E.; Ashrafi, S.; Teponno, R.B.; Bernecker, S.; Dababat, A.A.; Maier, W.; Stadler, M.
Nematicidal Cyclic Lipodepsipeptides and a Xanthocillin Derivative from a Phaeosphariaceous […]

Compared with `COc1cccc2c3c(ccc12)-c1ccc(O)c2c(OC)ccc-3c12` [Compound 3, viridistratin C], `COc1cccc2c3c(ccc12)-c1ccc(O)c2c(O)ccc-3c12` [Compound 2, viridistratin B] is lower in MIC: greater than 66.7 µg/mL for the first, 66.7 µg/mL (≈ 212 µM) for the second.

Compared with `Oc1cccc2c3c(ccc12)-c1ccc(O)c2c(O)ccc-3c12` [Compound 1, viridistratin A], `O=C1CCC(=O)c2c1c(O)cc1c2-c2ccc(O)c3c(O)ccc-1c23` [Compound 5, truncatone C] is higher in MIC: 66.7 µg/mL (≈ 222 µM) for the first, greater than 66.7 µg/mL for the second.

`O=C1C[C@H]2C(=C3CCC(=O)c4c(O)ccc2c43)c2cccc(O)c21` [Compound 4, truncatone A] showed an MIC greater than 66.7 µg/mL.
